Test results reported in ChEMBL document CHEMBL4261630.

What was measured:
[1] = biological target: T1, Neuraminidase C (Streptococcus pneumoniae, UniProt A0A0B7LH44); test: Inhibition of Streptococcus pneumoniae sialidase NanC using Neu5Acalpha2-3GalbetapNP as substrate after 30 mins by colorimetric assay
T1 sequence (A0A0B7LH44 whole entry): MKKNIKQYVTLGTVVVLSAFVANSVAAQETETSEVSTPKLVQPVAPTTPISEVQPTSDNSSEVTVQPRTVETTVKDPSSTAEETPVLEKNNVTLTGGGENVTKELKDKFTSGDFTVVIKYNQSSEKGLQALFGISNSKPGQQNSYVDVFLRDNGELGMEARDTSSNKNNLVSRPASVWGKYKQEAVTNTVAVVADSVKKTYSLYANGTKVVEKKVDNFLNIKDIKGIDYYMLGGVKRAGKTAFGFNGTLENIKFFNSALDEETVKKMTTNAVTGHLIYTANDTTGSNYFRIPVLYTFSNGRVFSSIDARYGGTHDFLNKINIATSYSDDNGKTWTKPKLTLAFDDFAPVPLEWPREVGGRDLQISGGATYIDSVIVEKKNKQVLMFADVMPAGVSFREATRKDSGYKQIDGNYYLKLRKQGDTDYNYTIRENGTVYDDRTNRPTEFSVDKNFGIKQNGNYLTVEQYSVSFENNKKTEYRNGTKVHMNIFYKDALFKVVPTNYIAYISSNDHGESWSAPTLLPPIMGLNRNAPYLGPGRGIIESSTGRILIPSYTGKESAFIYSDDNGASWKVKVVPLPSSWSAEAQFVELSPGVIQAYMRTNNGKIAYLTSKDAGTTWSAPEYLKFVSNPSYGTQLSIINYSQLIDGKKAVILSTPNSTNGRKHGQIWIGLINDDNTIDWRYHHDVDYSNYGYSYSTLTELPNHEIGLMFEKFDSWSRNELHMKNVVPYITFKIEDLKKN

[2] = Inhibition of Bifidobacterium longum subsp. infantis ATCC 15697 sialidase 2 (BiNanH2) using Neu5Acalpha2-3GalbetapNP as substrate after 30 mins by colorimetric assay
[3] = biological target: T2, Neuraminidase C (Streptococcus pneumoniae) (UniProt A0A0B7LH44); details: at 1 mM
T2 sequence (whole entry): T1 sequence (A0A0B7LH44 whole entry)

[4] = Inhibition of Pasteurella multocida sialyltransferase 1 using Neu5Acalpha2-3GalbetapNP as substrate after 30 mins by colorimetric assay
[5] = biological target: T3, Sialidase (Clostridium perfringens) (UniProt P10481); details: at 1 mM
T3 sequence (whole entry): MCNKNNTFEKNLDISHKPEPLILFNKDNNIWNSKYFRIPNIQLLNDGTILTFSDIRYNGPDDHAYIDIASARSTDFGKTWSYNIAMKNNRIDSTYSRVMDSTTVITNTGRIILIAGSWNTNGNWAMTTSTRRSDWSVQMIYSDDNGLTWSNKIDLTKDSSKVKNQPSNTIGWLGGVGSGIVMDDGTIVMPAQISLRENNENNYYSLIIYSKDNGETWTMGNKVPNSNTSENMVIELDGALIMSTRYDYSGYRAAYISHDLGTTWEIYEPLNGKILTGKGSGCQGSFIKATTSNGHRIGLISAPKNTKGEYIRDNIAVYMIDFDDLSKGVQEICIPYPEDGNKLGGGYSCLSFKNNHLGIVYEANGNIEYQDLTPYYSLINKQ

[6] = test system: Pasteurella multocida; details: at 0.1 mM
[7] = biological target: T2, Neuraminidase C (Streptococcus pneumoniae); details: at 0.1 mM
[8] = test system: Paenarthrobacter ureafaciens; details: at 0.1 mM
[9] = biological target: Sialidase (Vibrio cholerae serotype O1 (strain ATCC 39315 / El Tor Inaba N16961)) (UniProt P0C6E9); details: at 1 mM
Chain of Sialidase (Vibrio cholerae serotype O1 (strain ATCC 39315 / El Tor Inaba N16961)) (P0C6E9 whole entry, one chain of several): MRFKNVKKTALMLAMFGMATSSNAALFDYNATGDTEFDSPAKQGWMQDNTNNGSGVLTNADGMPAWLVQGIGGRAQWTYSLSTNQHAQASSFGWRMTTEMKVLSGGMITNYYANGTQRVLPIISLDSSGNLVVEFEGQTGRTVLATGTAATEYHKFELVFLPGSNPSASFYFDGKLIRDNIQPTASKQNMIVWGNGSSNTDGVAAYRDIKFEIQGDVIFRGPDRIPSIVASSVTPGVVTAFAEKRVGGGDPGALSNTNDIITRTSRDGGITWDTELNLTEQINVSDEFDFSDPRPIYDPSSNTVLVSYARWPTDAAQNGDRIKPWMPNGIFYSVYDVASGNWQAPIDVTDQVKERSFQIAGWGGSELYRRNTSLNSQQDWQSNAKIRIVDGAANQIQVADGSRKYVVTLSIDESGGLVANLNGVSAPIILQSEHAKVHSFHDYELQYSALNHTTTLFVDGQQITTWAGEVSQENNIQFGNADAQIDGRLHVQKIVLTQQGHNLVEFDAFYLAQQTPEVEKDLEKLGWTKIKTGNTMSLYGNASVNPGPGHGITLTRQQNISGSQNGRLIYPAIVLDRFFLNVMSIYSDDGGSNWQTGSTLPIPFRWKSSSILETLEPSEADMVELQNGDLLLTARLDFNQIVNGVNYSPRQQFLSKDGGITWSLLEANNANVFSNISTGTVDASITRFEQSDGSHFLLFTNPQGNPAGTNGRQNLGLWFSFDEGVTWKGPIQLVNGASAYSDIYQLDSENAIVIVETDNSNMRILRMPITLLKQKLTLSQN

[10] = biological target: Sialidase A (Streptococcus pneumoniae) (UniProt P62575); details: at 1 mM
Chain of Sialidase A (Streptococcus pneumoniae) (P62575 whole entry): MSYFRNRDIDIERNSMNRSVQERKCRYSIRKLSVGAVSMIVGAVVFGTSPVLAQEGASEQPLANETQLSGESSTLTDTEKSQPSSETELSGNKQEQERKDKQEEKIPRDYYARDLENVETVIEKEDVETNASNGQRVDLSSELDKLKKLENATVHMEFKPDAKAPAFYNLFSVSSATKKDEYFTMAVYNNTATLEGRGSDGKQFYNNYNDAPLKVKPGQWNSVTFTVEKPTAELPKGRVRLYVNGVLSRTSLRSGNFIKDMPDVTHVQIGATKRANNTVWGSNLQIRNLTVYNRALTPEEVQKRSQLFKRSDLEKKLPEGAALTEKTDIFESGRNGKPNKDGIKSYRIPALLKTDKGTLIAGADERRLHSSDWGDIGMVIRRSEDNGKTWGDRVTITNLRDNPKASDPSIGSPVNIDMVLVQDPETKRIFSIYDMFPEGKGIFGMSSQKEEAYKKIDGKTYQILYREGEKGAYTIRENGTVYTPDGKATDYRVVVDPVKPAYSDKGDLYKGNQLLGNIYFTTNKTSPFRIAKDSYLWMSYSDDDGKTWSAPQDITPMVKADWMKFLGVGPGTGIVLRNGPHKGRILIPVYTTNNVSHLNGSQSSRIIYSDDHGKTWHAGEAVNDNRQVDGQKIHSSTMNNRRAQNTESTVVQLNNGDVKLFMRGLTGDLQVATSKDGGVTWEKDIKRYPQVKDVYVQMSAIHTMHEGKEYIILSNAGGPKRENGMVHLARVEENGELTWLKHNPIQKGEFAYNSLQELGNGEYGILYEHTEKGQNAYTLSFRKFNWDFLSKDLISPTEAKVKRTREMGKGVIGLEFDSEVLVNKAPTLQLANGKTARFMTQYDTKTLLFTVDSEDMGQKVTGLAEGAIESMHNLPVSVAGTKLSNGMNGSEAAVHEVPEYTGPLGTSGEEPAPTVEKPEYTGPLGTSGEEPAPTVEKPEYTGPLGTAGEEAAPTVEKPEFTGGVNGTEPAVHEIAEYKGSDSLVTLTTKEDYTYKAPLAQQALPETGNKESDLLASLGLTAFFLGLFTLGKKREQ

[11] = biological target: T4, Sialidase B (Streptococcus pneumoniae serotype 4 (strain ATCC BAA-334 / TIGR4)) (UniProt Q54727); details: at 1 mM
T4 sequence (whole entry): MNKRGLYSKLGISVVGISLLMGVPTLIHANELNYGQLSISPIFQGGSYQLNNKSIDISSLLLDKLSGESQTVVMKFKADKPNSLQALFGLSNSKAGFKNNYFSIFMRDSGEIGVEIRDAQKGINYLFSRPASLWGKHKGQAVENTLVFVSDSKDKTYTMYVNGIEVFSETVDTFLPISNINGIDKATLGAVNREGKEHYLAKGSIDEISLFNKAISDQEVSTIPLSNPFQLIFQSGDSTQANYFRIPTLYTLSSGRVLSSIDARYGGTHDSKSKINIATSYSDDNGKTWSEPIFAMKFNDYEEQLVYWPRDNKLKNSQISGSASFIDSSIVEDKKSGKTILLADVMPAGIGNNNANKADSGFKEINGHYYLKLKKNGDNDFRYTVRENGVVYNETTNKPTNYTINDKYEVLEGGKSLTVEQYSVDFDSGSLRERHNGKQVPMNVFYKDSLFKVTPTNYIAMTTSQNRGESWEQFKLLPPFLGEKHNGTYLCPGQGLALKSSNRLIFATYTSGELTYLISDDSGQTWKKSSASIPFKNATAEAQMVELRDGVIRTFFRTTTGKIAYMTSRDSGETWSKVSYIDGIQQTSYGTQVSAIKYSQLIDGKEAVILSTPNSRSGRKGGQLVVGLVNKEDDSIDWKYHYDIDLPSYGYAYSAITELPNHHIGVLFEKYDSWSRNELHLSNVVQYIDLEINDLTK

[12] = biological target: T4, Sialidase B (Streptococcus pneumoniae serotype 4 (strain ATCC BAA-334 / TIGR4)); details: at 0.1 mM
[13] = test system: Bifidobacterium longum subsp. infantis; details: ATCC 15697, at 0.1 mM
[14] = biological target: Sialidase (Vibrio cholerae serotype O1 (strain ATCC 39315 / El Tor Inaba N16961)) (UniProt P0C6E9); details: at 0.1 mM
[15] = biological target: Sialidase A (Streptococcus pneumoniae, UniProt P62575); test: Inhibition of Streptococcus pneumoniae NanA using Neu5Acalpha2-3GalbetapNP as substrate after 30 mins by colorimetric assay
Chain of Sialidase A (P62575 whole entry): as the sequence (P62575 whole entry) above

[16] = test system: Pasteurella multocida; details: at 1 mM
[17] = test system: Paenarthrobacter ureafaciens; details: at 1 mM
[18] = Inhibition of Arthrobacter ureafaciens sialidase using Neu5Acalpha2-3GalbetapNP as substrate after 30 mins by colorimetric assay; parameters: species or system Paenarthrobacter ureafaciens
[19] = biological target: Sialidase (Vibrio cholerae serotype O1 (strain ATCC 39315 / El Tor Inaba N16961), UniProt P0C6E9); test: Inhibition of Vibrio cholerae sialidase using Neu5Acalpha2-3GalbetapNP as substrate after 30 mins by colorimetric assay
Chain of Sialidase (P0C6E9 whole entry, one chain of several): as the sequence (P0C6E9 whole entry, one chain of several) above

[20] = biological target: T5, Sialidase B (Streptococcus pneumoniae serotype 4 (strain ATCC BAA-334 / TIGR4), UniProt Q54727); test: Inhibition of Streptococcus pneumoniae NanB using Neu5Acalpha2-3GalbetapNP as substrate after 30 mins by colorimetric assay
T5 sequence (Q54727 whole entry): T4 sequence (whole entry)

[21] = biological target: Sialidase A (Streptococcus pneumoniae) (UniProt P62575); details: at 0.1 mM
[22] = biological target: T3, Sialidase (Clostridium perfringens); details: at 0.1 mM
[23] = test system: Bifidobacterium longum subsp. infantis; details: ATCC 15697, at 1 mM

| SMILES | IC50 [1] | IC50 [2] | inhibition [3] | IC50 [4] | inhibition [5] | inhibition [6] | inhibition [7] | inhibition [8] | inhibition [9] | inhibition [10] | inhibition [11] | inhibition [12] | inhibition [13] | inhibition [14] | IC50 [15] | inhibition [16] | inhibition [17] | IC50 [18] | inhibition [21] | inhibition [22] | also measured |
| --- | --- | --- | --- | --- | --- | --- | --- | --- | --- | --- | --- | --- | --- | --- | --- | --- | --- | --- | --- | --- | --- |
| CC(=O)N[C@H]1[C@H]([C@H](O)[C@H](O)Cn2cc(C[C@H](NC(=O)[C@@H](N)CCC(=O)O)C(=O)N[C@@H](CCCCN)C(=O)N[C@@H](CCC(=O)O)C(N)=O)nn2)OC(C(=O)O)=C[C@@H]1O | > 1000 µM | > 1000 µM | 9.8% | > 1000 µM |  |  |  |  |  |  |  |  |  |  |  |  |  |  |  |  |  |
| CC(=O)N[C@H]1[C@H]([C@H](O)[C@H](O)CN=[N+]=[N-])OC(C(=O)O)=C[C@@H]1O | > 1000 µM | 100 to 1000 µM | 39.2% | > 1000 µM | 89.3% | 1.7% | 13.4% | 99.2% | 95.6% | 98.8% | 35.2% | 6.6% | 49.4% | 86% | 44.3 µM | 14.9% | 99.5% | 0.72 µM | 78.6% | 57.1% | IC50 [19]: 20 µM; IC50 [20]: > 1000 µM; inhibition [23]: 86.7% |
| CC(=O)N[C@H]1[C@H]([C@H](O)[C@H](O)Cn2cc(C[C@H](N)C(=O)O)nn2)OC(C(=O)O)=C[C@@H]1O | > 1000 µM | > 1000 µM | 47.8% | > 1000 µM | 69.7% | 2.8% | 15.3% | 42.1% | 93.2% | 84.4% | 35.5% | 8.8% | 0% | 82% | 100 to 1000 µM | 9.1% | 85.6% |  | 42.9% | 17.6% | IC50 [19]: 13.5 µM; IC50 [20]: > 1000 µM; inhibition [23]: 14.7% |
| CC(=O)N[C@H]1[C@H]([C@H](O)[C@H](O)Cn2cc(C[C@H](N)C(=O)N[C@H](CCC(=O)O)C(N)=O)nn2)OC(C(=O)O)=C[C@@H]1O | > 1000 µM |  | 29.7% | > 1000 µM | 84.6% | 0.1% | 13.5% | 95.7% | 93.5% | 94.7% | 39% | 12.6% | 3.3% | 85.8% | 65.6 µM | 6% | 96.2% | 1.87 µM | 61.9% | 48.9% | IC50 [19]: 10.9 µM; IC50 [20]: > 1000 µM; inhibition [23]: 76.4% |
| CC(=O)N[C@H]1[C@H]([C@H](O)[C@H](O)CO)OC(C(=O)O)=C[C@@H]1O [NEU5AC2EN] | > 1000 µM |  | 23.7% | > 1000 µM | 92.6% | 2.1% | 6.3% | 95.8% | 94.5% | 99.9% | 31.9% | 2.7% |  | 88.2% |  | 9.3% | 99% | 8.1 µM | 94.9% | 72.1% |  |
